Data reported in patent EP2927685A1, “Suitable hepatocytes for in-vitro hepatitis tests” (Medicyte GmbH, priority 2014, dated 2015).
Like-named read-outs stand apart in the source and are kept apart here.

Key:
[1] = test system: differentiated hepatocytes; test: Apoptosis quantification by TUNEL
[2] = test system: CYP3A4/5, 2E1, 2B6 and 1A1; test: Cytochrome P450 inhibition in differentiated hepatocytes; assay type: in vitro ADME, human; conditions: after 30 min of incubation, 200 µM naringenin
[3] = test system: CYP450; conditions: human, hepatocytes, 72 h, 200 µM
[4] = test system: differentiated hepatocytes; test: Intrahepatic cholestasis: bile secretion by CDFDA staining; assay type: cell-based, human; conditions: 24 hours of exposure, compared to melatonin
[5] = test system: primary human hepatocyte transduced with HPV E6 and E7 genes
[6] = test system: differentiated hepatocytes; conditions: human, 48 h
[7] = test system: CYP1A1; test: Cytochrome P450 induction in differentiated hepatocytes (CYP1A1); assay type: in vitro ADME, human; conditions: 50 µM omeprazole, normalized to vehicle-only controls

aflatoxin B1
Percent apoptosis (positive nuclei) [1]: 23%

O=C1C[C@@H](c2ccc(O)cc2)Oc2cc(O)cc(O)c21 [naringenin]
inhibition of CYP3A4/5, 2E1, 2B6 and 1A1 [2]: drastically inhibited | increase in CYP450 activity compared with vehicle-treated cells [3]: 5-7 fold

COc1ccc2[nH]cc(CCNC(C)=O)c2c1 [melatonin]
Percent apoptosis (positive nuclei) ([1]; differentiated hepatocytes exposed for 24 hours to TC20 values, TUNEL): 4%

Cc1c(C)c2c(c(C)c1O)CCC(C)(COc1ccc(CC3SC(=O)NC3=O)cc1)O2 (stereo not drawn) [troglitazone]
bile secretion (measure of intrahepatic cholestasis) [4]: loss of bile secretion function

N#CC(=C(/N)Sc1ccccc1N)/C(C#N)=C(\N)Sc1ccccc1N [U0126]
epithelial phenotype of the cells [5]: stable E-Cadherin positive epithelial phenotype

CC(=O)Oc1ccccc1C(=O)O [acetylsalicylic acid]
increase in intracellular lipids compared to control [6]: 33-47%

COc1ccc2[nH]c([S+]([O-])Cc3ncc(C)c(OC)c3C)nc2c1 (stereo not drawn) [omeprazole]
CYP1A1 increased by stimulation [7]: 10 folds

CN(C)CCCN1c2ccccc2Sc2ccc(Cl)cc21 [chlorpromazine]
bile secretion (measure of intrahepatic cholestasis) [4]: loss of bile secretion function
